Data on one compound can be found in publication PMC7010785, “Nandrolone induces a stem cell-like phenotype in human hepatocarcinoma-derived cell line inhibiting mitochondrial respiratory activity” (Scientific Reports, 2020).

This assay concerns the target T1, mitochondrial respiratory chain complex III (CxIII, coenzyme Q-cytochrome c oxidoreductase) (Bos taurus, UniProt P00157+P13272).
T1 construct: gene MT-CYB; native complex in mitochondria isolated from bovine heart
As to the kind of experiment: spectrophotometric initial rates of cytochrome c reduction with graded decylubiquinol in isolated mitochondria; reciprocal and Dixon plots. The assay is classed as biochemical. An excerpt: spectrophotometric initial rates of cytochrome c reduction with graded decylubiquinol in isolated mitochondria; reciprocal and Dixon plots on mitochondrial respiratory chain complex III (CxIII, coenzyme Q-cytochrome c oxidoreductase) | indicate a competitive modality of inhibition.

Structures are written as SMILES.

Turning to `C[C@]12CC[C@H]3[C@@H](CCC4=CC(=O)CC[C@@H]43)[C@@H]1CC[C@@H]2O` [ND, nandrolone], the Ki is ~300 µM.

Broadly, the Ki is the equilibrium dissociation constant of an inhibitor or competing ligand from its target. Low values mean a stronger hold on the target, high ones a looser hold on the target.
